In data set [1] the test system is skin and shanks of broilers. The data set can be described thus: Reflectance colorimetry and visual classification of skin and shanks of broilers. The class given is in vivo, broiler chickens (Ross 308, Ross 508). Also on record: key to Shanks Visual Classification / Skin Visual Classification: −; (+); +; ++ = good color; o = orange. The conditions noted are these: dry carcasses, average over doses, Table 6. On the procedure:
(§1) Pigmentation efficacy was assessed in egg yolk, in the back skin of the broiler carcass, and in broiler shanks by reflectance colorimetry accompanied by visual scoring (Roche Colour Fan). The deposition of the ethyl-β-apo-8′-carotenoate (control) and the other carotenoid esters was determined in egg yolk and in the broiler back skin. In addition, the carotenoid levels in plasma and abdominal fat were measured.
(§2) The trials were carried out using chickens of the type Ross 308 (trials MC-24/98 and MC-02/99) and Ross 508 (trials MC-11/99, MC-16/99, MC-24/99, and MC-03/00) (Couvir de la Bohardière, F-49290 Saint Laurent de la Plaine). One-day old broiler chickens, separated by sex, were divided by weight into experimental groups of ten animals each and reared in floor pens littered with wood shavings. The chickens were fed a low carotenoid basal grower diet until day 22 (trials MC-24/98, MC-02/99, and MC-11/99) or until day 15 (trials MC-16/99, MC-24/99, and MC-03/00). The low carotenoid basal grower diet contained less than 2 mg total xanthophylls per kg of feed, and its composition is described in Table 2. For the subsequent experimental period of three weeks, the birds received the basal diet supplemented with an appropriate pigment. The feed was given in the form of crumbled pellets during the first week and as pellets thereafter. The animals had unrestricted access to feed and water. A given treatment involved one group of male and one group of female chickens. Each group of chickens was weighed at day 22 (trials MC-24/98, MC-02/99, and MC-11/99) or day 15 (trials MC-16/99, MC-24/99, and MC-03/00) and on day 43. On day 42, five chickens per group were selected at random, labelled, and blood samples were taken from the jugular vein. At the end of the experiment (day 44) the animals were slaughtered in a commercial slaughterhouse (Freyburger, Dannemarie, France). The following day, the color of the skin (hind back of carcasses) and the shanks of the labelled chicken were measured by reflectance colorimetry (Minolta CR 200 apparatus, CIE-Lab system). Samples of the dorsal skin and abdominal fat were obtained, pooled for each experimental group, and the carotenoid concentration was determined. The concentration of carotenoids in feed, plasma, skin, and abdominal fat was determined by standard procedures as described after Tables 1 and 2.
The color of broiler skin and shanks was measured using a tristimulus Minolta CR-300 Chromameter with diffuse D65-illumination and a 0° viewing angle. The color of the skin was read at three different points on the back of the dry broiler carcasses and average values of the triple measurements were recorded. The color of shanks was measured using single measurements at the ball between the toes.
(§3) The color data were expressed as CIE L*a*b*-values including h*(hue) and C* (chroma). The values given in the tables per treatment and trial represent averages of color measurements of four egg yolk pools, ten broiler back skins, or ten broiler shanks (5 males and 5 females).

The nature of data set [2]: Carotenoid ester content and deposition rate in egg yolk of laying hens (HPLC). Format: in vivo, laying hens (ISA Brown). To be noted: egg yolk; for Deposition Rate Target Values % of Controls / Ethyl β-apo-8′-carotenoate Equivalents % of Controls: Table 8; for Deposition Rate % of Controls: Table 10. The protocol:
as §1
Each year in February the pigmentation trials are started with a new flock of layers.
(§4) Preceding the trials the hens were fed a low carotenoid basal diet (produced at the CRNA) without carotenoid supplementation for at least 28 days. During the trials, the control group received the low carotenoid basal diet containing less than 2 mg total xanthophylls per kg of feed. The other animals were fed this diet supplemented with the appropriate pigments for three weeks. The diet was given to the animals ad libitum in mash form. The hens had free access to tap water.
Peaks were related to all-E- and Z-isomers of the various carotenoid esters by chromatography of heat-isomerized solutions of the respective reference substances in n-hexane. The HPLC system was calibrated with the all-E-isomer of ethyl β-apo-8′-carotenoate. The response factor of the various derivatives was deduced from that of ethyl β-apo-8′-carotenoate taking into account the respective molecular weight. The content of the Z-isomer fractions was calculated based on the response of the all-E-isomer and using a correction factor of 1.4 to account for the lower specific absorbance of the Z-isomers.
(§5) The HPLC-system for in-feed analysis was also used to quantify the carotenoid esters in egg yolk, broiler tissues, and broiler plasma, but the extraction procedure was different for the various matrices.
For the extraction of egg yolk, 10 g of pooled and homogenised yolk were mixed with 10 ml of demineralized water using a dispersion instrument (Polytron). 1.0 g of diluted egg yolk was introduced into a 10 ml test tube with 1.0 ml of demineralized water and 2.0 ml of ethanol, and the contents were mixed on a Vortex shaker. After addition of 4.0 ml of n-hexane, the mixture was further treated as described for plasma.

The test system of the next data set is egg yolk. The data set can be described thus: Egg yolk colour: reflectance colorimetry and Roche Yolk Colour Fan. The class given is in vivo, laying hens (ISA Brown). To be noted: egg yolk, laying hens, 5.0 mg/kg feed. On the procedure: as §1
The trials were carried out following the standard experimental design used for egg yolk pigmentation trials at the Roche Research Center for Animal Nutrition (CRNA, F-68305 Village-Neuf, France). Each year in February the pigmentation trials are started with a new flock of layers. At the beginning of the trials the age of the laying hens (192 birds, type ‘ISA Brown’) were as follows:
as §4, with “water. Beside the unsupplemented control treatment, treatments were carried out involving the provision of supplemented feed, the results of these treatments being presented in Tables 7-9.” for “water.”
Egg yolk color was assessed as described by Steinberg, et al. (Arch. Geflügelk 64 (4), 180-187 (2000)). The yolks were manually separated from the whites of the eggs. The isolated yolks of three to six eggs were combined, weighed, and stirred with a glass rod until the color appeared homogeneous. The color hue was visually scored using the Roche Yolk Colour Fan (RYCF, version 1993). An aliquot of the pooled egg yolks was transferred into a glass cuvette yielding an approximately 2 cm thick layer. The color was then measured by means of a Dr. Lange Xeno Color LS 100 spectro-colorimeter with diffuse D65-illumination and a 8° viewing angle.
as §3

Data set [3] is described as follows: Carotenoid ester content in plasma, back skin and abdominal fat of broilers (HPLC). Format: in vivo, broiler chickens (Ross 308, Ross 508). To be noted: average over doses, Table 4. On the procedure: as §1, §2
The content of the various carotenoid esters in feed was determined according to the method of Schierle, et al. (J. Schierle , N. Faccin, V. Riegert, Analytical Methods for Vitamins and Carotenoids in Feed, Revised supplement: Determination of Stabilized Apocarotenoic Ester and Canthaxanthin in Premixes and Feeds, Roche publication no. 50771 (1995), publicly available from. F. Hoffmann-La Roche Ltd., CH-4070 Basel). This method was modified in that the mobile phase of the normal-phase HPLC contained 0.5% instead of 7% acetone in n-hexane, improving the separation of the E/Z-isomers of the carotenoid esters. Peaks were related to all-E- and Z-isomers of the various carotenoid esters by chromatography of heat-isomerized solutions of the respective reference substances in n-hexane. The HPLC system was calibrated with the all-E-isomer of ethyl β-apo-8′-carotenoate. The response factor of the various derivatives was deduced from that of ethyl β-apo-8′-carotenoate taking into account the respective molecular weight. The content of the Z-isomer fractions was calculated based on the response of the all-E-isomer and using a correction factor of 1.4 to account for the lower specific absorbance of the Z-isomers.
as §5
For plasma extraction, 1.0 g of the well-mixed plasma sample was introduced into a 10 ml test tube with 1.0 ml of demineralized water and 4.0 ml of ethanol, and the contents mixed on a Vortex shaker. […]

Structures are written as SMILES.

As to `CC(C=CC=C(C)C=CC1=C(C)CCCC1(C)C)=CC=CC=C(C)C=CC=C(C)C(=O)OC1CCCC1` [(15), cyclopentyl beta-apo-8′-carotenoate], in data set [1], the “Shanks Chroma C*ab % of Controls” value turned out to be 99%, the “Shanks Color Hue h*ab % of Controls” value was 100%, the “Shanks Visual Classification” value is “++” and the “Skin Chroma C*ab % of Controls” value was 106%. In data set [1], the “Skin Color Hue h*ab % of Controls” value amounted to 99% and the “Skin Visual Classification” value is given as “++”. Also, in data set [2] (trial H-05/00, 5.0 mg/kg feed), the “Deposition Rate Target Values % of Controls” value came out at 95%, the “Ethyl β-apo-8′-carotenoate Equivalents % of Controls” value came to 95% and the “Deposition Rate % of Controls” value came to 95%. Further, the “Color Fan Value % of Controls” value with egg yolk (trial H-05/00, Table 8) turned out to be 116%. In addition, in the data set with egg yolk (trial H-05/00, Table 10), the “Chroma C*ab % of Controls” value amounted to 107%, the “Color Fan Value % of Controls” value stood at 116% and the “Color Hue h*ab % of Controls” value came out at 101%. In data set [3], the “Analytical Content as Equivalent of Ethyl β-apo-8′-carotenoate in % of control Fat” value (from here on “Analytical Content … in % of control Fat”) is reported as 50%, the “Analytical Content as Equivalent of Ethyl β-apo-8′-carotenoate in % of control Plasma” value (from here on “Analytical Content … in % of control Plasma”) was found to be 76% and the “Analytical Content as Equivalent of Ethyl β-apo-8′-carotenoate in % of control Skin” value (“Analytical Content … in % of control Skin” for short) turned out to be 77%.

`CCC(CC)COC(=O)C(C)=CC=CC(C)=CC=CC=C(C)C=CC=C(C)C=CC1=C(C)CCCC1(C)C` [(9), 2-ethyl-1-butyl beta-apo-8′-carotenoate]: in data set [1], the “Shanks Chroma C*ab % of Controls” value is on record as 92%, the “Shanks Color Hue h*ab % of Controls” value is given as 101%, the “Shanks Visual Classification” value was “(+)” and the “Skin Chroma C*ab % of Controls” value is on record as 82%. Further, in data set [1], the “Skin Color Hue h*ab % of Controls” value amounted to 101% and the “Skin Visual Classification” value is “+”. Besides, in data set [2] (trial H-25/99, 5.0 mg/kg feed), the “Deposition Rate Target Values % of Controls” value is listed as 87%, the “Ethyl β-apo-8′-carotenoate Equivalents % of Controls” value came out at 77% and the “Deposition Rate % of Controls” value stood at 87%. Besides, the “Color Fan Value % of Controls” value with egg yolk (trial H-25/99, Table 8) was determined as 101%. Moreover, in the data set on egg yolk (trial H-25/99, Table 10), the “Chroma C*ab % of Controls” value is reported as 99%, the “Color Fan Value % of Controls” value worked out at 101% and the “Color Hue h*ab % of Controls” value came to 92%. In data set [3], the “Analytical Content … in % of control Fat” value came to 45%, the “Analytical Content … in % of control Plasma” value was 59% and the “Analytical Content … in % of control Skin” value turned out to be 55%.

In the case of `CCCC(C)COC(=O)C(C)=CC=CC(C)=CC=CC=C(C)C=CC=C(C)C=CC1=C(C)CCCC1(C)C` (stereo not drawn) [(11), 2-methyl-1-pentyl beta-apo-8′-carotenoate], in data set [1], the “Shanks Chroma C*ab % of Controls” value was 92%, the “Shanks Color Hue h*ab % of Controls” value is 101%, the “Shanks Visual Classification” value is recorded as “(+)” and the “Skin Chroma C*ab % of Controls” value came out at 87%. Moreover, in data set [1], the “Skin Color Hue h*ab % of Controls” value is listed as 95% and the “Skin Visual Classification” value was “+”. Also, in data set [2] (trial H-25/99, 5.0 mg/kg feed), the “Deposition Rate Target Values % of Controls” value stood at 112%, the “Ethyl β-apo-8′-carotenoate Equivalents % of Controls” value is reported as 96% and the “Deposition Rate % of Controls” value was found to be 112%. In addition, in the data set on egg yolk (trial H-25/99, Table 8), the “Color Fan Value % of Controls” value was 116%. Further, in the data set on egg yolk (trial H-25/99, Table 10), the “Chroma C*ab % of Controls” value is 101%, the “Color Fan Value % of Controls” value came to 116% and the “Color Hue h*ab % of Controls” value stood at 103%. Also, in data set [3], the “Analytical Content … in % of control Fat” value was determined as 50%, the “Analytical Content … in % of control Plasma” value worked out at 59% and the “Analytical Content … in % of control Skin” value is given as 69%.

For the molecule `CC(C=CC=C(C)C=CC1=C(C)CCCC1(C)C)=CC=CC=C(C)C=CC=C(C)C(=O)OC(C)CC(C)C` (stereo not drawn) [(12), 4-methyl-2-pentyl beta-apo-8′-carotenoate], in data set [1], the “Shanks Chroma C*ab % of Controls” value was 95%, the “Shanks Color Hue h*ab % of Controls” value came to 101%, the “Shanks Visual Classification” value is listed as “+” and the “Skin Chroma C*ab % of Controls” value is 91%. Besides, in data set [1], the “Skin Color Hue h*ab % of Controls” value is given as 99% and the “Skin Visual Classification” value is “+”. Also, in data set [2] (trial H-25/99, 5.0 mg/kg feed), the “Deposition Rate Target Values % of Controls” value was found to be 89%, the “Ethyl β-apo-8′-carotenoate Equivalents % of Controls” value was 79% and the “Deposition Rate % of Controls” value came out at 89%. Further, in the data set with egg yolk (trial H-25/99, Table 8), the “Color Fan Value % of Controls” value was determined as 101%. Further, in the data set with egg yolk (trial H-25/99, Table 10), the “Chroma C*ab % of Controls” value was 74%, the “Color Fan Value % of Controls” value is 101% and the “Color Hue h*ab % of Controls” value was 109%. Further, in data set [3], the “Analytical Content … in % of control Fat” value was determined as 49%, the “Analytical Content … in % of control Plasma” value is reported as 66% and the “Analytical Content … in % of control Skin” value turned out to be 85%.

Source of the values: patent US6896895B2, “Carotenoid esters, carotenoid-enriched feeds, and methods of pigmenting foods and foodstuffs” (DSM IP Assets B.V., priority 2000, dated 2005).
